Tests used:
[1] = tested on: Daphnia magna; conditions: in vivo
[2] = tested on: Fish; experiment: Fish aqua tox (OECD 203); format: in vivo

dialkyldimethyl ammonium chloride [Adogen 442]
Aquatoxicity, invertebrates, Daphnia magna; (202) 48 h; EC50 [1]: 0.19 µg/mL | Fish; aqua tox (203); 96 h; LC50 [2]: 10.1 µg/mL

Source: patent US20190040584A1, “Use of DIPA-Esterquat Debonder For Tissue And Fluff Pulp Manufacturing” (Evonik Degussa GmbH, priority 2016, published 2019)
